Test results from ChEMBL document CHEMBL1201862, “PubChem BioAssay data set” (2004).
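All cell lines were grown in 96-well plates and treated with compound for 48 hours. GI50: concentration for 50% inhibition of growth.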 Active and inactive are the calls of the source. Rule as the data show it: active = GI50 up to about 1.1 µM and inactive = higher.

How the values were obtained:
Test in all cases: growth of human tumour cells (NCI), 48 h
[1] = test system: HCT-116
[2] = test system: EKVX
[3] = test system: SK-OV-3
[4] = test system: SNB-75
[5] = test system: MOLT-4
[6] = test system: OVCAR-4
[7] = test system: NCI-H460
[8] = test system: UACC-257
[9] = test system: IGROV-1
[10] = test system: CAKI-1
[11] = test system: NCI-H23
[12] = test system: SF-295
[13] = test system: SN12C
[14] = test system: HOP-62
[15] = test system: OVCAR-3
[16] = test system: SK-MEL-28
[17] = test system: NCI/ADR-RES
[18] = test system: HL-60
[19] = test system: T47D
[20] = test system: DU-145
[21] = test system: CCRF-CEM
[22] = test system: TK-10
[23] = test system: MDA-N
[24] = test system: UACC-62
[25] = test system: HCT-15
[26] = test system: UO-31
[27] = test system: SK-MEL-5
[28] = test system: MDA-MB-231
[29] = test system: M14
[30] = test system: SNB-19
[31] = test system: Hs-578T
[32] = test system: SF-539
[33] = test system: HT-29
[34] = test system: 786-0
[35] = test system: OVCAR-8
[36] = test system: MCF7
[37] = test system: KM12
[38] = test system: A549
[39] = test system: OVCAR-5
[40] = test system: COLO 205
[41] = test system: PC-3
[42] = test system: K562
[43] = test system: SW-620
[44] = test system: U-251
[45] = test system: MDA-MB-435
[46] = test system: HOP-92
[47] = test system: Malme-3M
[48] = test system: ACHN
[49] = test system: RXF 393
[50] = test system: NCI-H226
[51] = test system: NCI-H522
[52] = test system: SK-MEL-2
[53] = test system: RPMI-8226
[54] = test system: A498
[55] = test system: SF-268
[56] = test system: HCC 2998
[57] = test system: LOX IMVI

CCC1(CC)SCc2nc3ccccc3n21
GI50 [1]: 23.9 µM (inactive) | GI50 [2]: 27.3 µM (inactive) | GI50 [3]: 38.5 µM (inactive) | GI50 [4]: 12.6 µM (inactive) | GI50 [5]: 22.8 µM (inactive) | GI50 [6]: 20.6 µM (inactive) | GI50 [7]: 36.9 µM (inactive) | GI50 [8]: 27.4 µM (inactive) | GI50 [9]: 34.2 µM (inactive) | GI50 [10]: 35.2 µM (inactive) | GI50 [11]: 27.7 µM (inactive) | GI50 [12]: 36.5 µM (inactive) | GI50 [13]: 49.8 µM (inactive) | GI50 [14]: 37.1 µM (inactive) | GI50 [15]: 32.1 µM (inactive) | GI50 [16]: 37.2 µM (inactive) | GI50 [17]: 25.6 µM (inactive) | GI50 [18]: 26 µM (inactive) | GI50 [19]: 49.7 µM (inactive) | GI50 [20]: 50 µM (inactive) | GI50 [21]: 33.4 µM (inactive) | GI50 [22]: 38.8 µM (inactive) | GI50 [23]: 34.9 µM (inactive) | GI50 [24]: 39.4 µM (inactive) | GI50 [25]: 36.2 µM | GI50 [26]: 35.4 µM (inactive) | GI50 [27]: 20.9 µM (inactive) | GI50 [28]: 29.6 µM (inactive) | GI50 [29]: 26.5 µM (inactive) | GI50 [30]: 53.2 µM (inactive) | GI50 [31]: 31.1 µM (inactive) | GI50 [32]: 54.3 µM (inactive) | GI50 [33]: 32.3 µM (inactive) | GI50 [34]: 66.4 µM (inactive) | GI50 [35]: 38.4 µM (inactive) | GI50 [36]: 30.2 µM (inactive) | GI50 [37]: 23.9 µM (inactive) | GI50 [38]: 35.9 µM (inactive) | GI50 [39]: 45.6 µM (inactive) | GI50 [40]: 19.8 µM (inactive) | GI50 [41]: 13.8 µM (inactive) | GI50 [42]: 18.9 µM (inactive) | GI50 [43]: 58.6 µM (inactive) | GI50 [44]: 37.2 µM (inactive) | GI50 [45]: 26 µM (inactive) | GI50 [46]: 18 µM (inactive) | GI50 [47]: 22.4 µM (inactive) | GI50 [48]: 30.1 µM (inactive) | GI50 [49]: 32.2 µM (inactive) | GI50 [50]: 33.4 µM (inactive) | GI50 [51]: 37.6 µM (inactive) | GI50 [52]: 27.5 µM (inactive) | GI50 [53]: 24.9 µM (inactive) | GI50 [54]: 40.1 µM (inactive) | GI50 [55]: 52 µM (inactive) | GI50 [56]: 94.6 µM (inactive) | GI50 [57]: 34.8 µM (inactive)
